According to patent US20190177279A1, “CARBOXYLIC ACID AROMATIC 1,2-CYCLOPROPYLAMIDES” (Bayer Pharma Aktiengesellschaft, priority 2017, published 2019):

Key:
[1] = biological target: T1, human B1 receptor (Homo sapiens, UniProt P46663); assay: Calcium flux assay (FLIPR) with recombinant CHO-K1 cells expressing human B1 receptor; assay type: cell-based; conditions: absence of 0.1% BSA in assay buffer, agonist Lys-(Des-Arg)-Bradykinin, read-out: hB1 free IC50
T1 construct: host or cells: CHO-K1
T1 sequence (P46663 1-353): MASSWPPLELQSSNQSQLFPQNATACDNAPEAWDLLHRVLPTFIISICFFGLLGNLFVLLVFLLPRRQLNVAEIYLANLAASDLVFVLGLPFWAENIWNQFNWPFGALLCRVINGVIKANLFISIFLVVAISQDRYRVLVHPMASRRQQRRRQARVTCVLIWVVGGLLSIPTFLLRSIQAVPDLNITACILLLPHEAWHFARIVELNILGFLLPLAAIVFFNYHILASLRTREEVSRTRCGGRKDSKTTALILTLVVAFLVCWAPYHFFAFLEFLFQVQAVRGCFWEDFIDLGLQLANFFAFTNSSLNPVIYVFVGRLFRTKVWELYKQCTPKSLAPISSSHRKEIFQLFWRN
Experimental: The potency to inhibit the Bradykinin B1 receptors was determined for the example compounds of this invention in a cell-based fluorescent calcium-mobilisation assay. The assay measures the ability of example compounds to inhibit Bradykinin B1 receptor agonist-induced increase of intracellular free Ca^2+ in the cell line expressing B1 receptor. Specifically, calcium indicator—loaded cells are pre-incubated in the absence or presence of different concentrations of example compounds followed by the stimulation with a selective B1 receptor agonist peptide. The change of the intracellular Ca^2+ concentration is monitored with a fluorescent plate reader FLIPR (Molecular Devices).
Calcium flux Assay (FLIPR) with recombinant cells for Bradykinin B1 receptor antagonist, either in the presence (hB1 IC50) or absence (hB1 free IC50) of 0.1% BSA in assay buffer
CHO-K1 cell line expressing human B1 receptor was purchased from Euroscreen (Gosselies, Belgium, with reference name hB1-D1). The cells were grown in Nutrient Mixture Ham's F12 (Sigma) containing 10% Foetal bovine serum (Sigma) and 400 μg/mL G418 (Sigma), 5 μg/mL puromycin (Sigma).
For the calcium flux assay, 80% confluent cells were detached from the culture vessels with Versene (Gibco), and seeded into 384-well plates (Cell binding Surface; Corning, N.Y.; #3683) at a density of 15,000 cells per well. Cells were seeded in a volume of 50 μL in medium without antibiotics and incubated overnight in a humidified atmosphere with 5% CO2 at 37° C. […] The calcium indicator loaded cells were incubated at 37° C. for 2 hrs. Extracellular dye was then removed and each well was filled with 45 μL of assay buffer. Cell plates were kept in dark until used. Example compounds were assayed at 8 concentrations in triplicate. Serial 10-fold dilutions in 100% DMSO were made at a 100-times higher concentration than the final concentration, and then diluted 1:10 in assay buffer. 5 μL of each diluted compound was added to the well of cell plates (yielding final concentration with 1% DMSO), and incubated for 30 min at 28° C. before the addition of B1 receptor agonist on the FLIPR instrument.
Agonist plates contained the agonist Lys-(Des-Arg)-Bradykinin (Bachem, Brackley) at 3.5×EC90 in assay buffer with 1% DMSO. The addition of agonist 20 μl per well to the assay plate was carried out on the FLIPR instrument while continuously monitoring Ca^2+-dependent fluorescence at 538 nm. A peptide antagonist Lys-(Des-Arg-Leu)-Bradykinin (Bachem, Brackley) at 20 µM was used to determine the full inhibition as control.
Peak fluorescence was used to determine the response to agonist obtained at each concentration of example compound by the following equation:
% Response=100*(RFU(example compound)−RFU(control)/(RFU(DMSO)−RFU(control)) • Control=full inhibition by the peptide antagonist Lys-(Des-Arg-Leu)-Bradykinin at 20 μM
The response values were plotted against the logarithm of the compound concentrations. The compounds were tested in triplicates per plate and mean values were plotted in Excel XLfit to determine IC50 values, percentage of maximal inhibition and the Hill slopes.

[2] = biological target: T2, native human B1 receptors (Homo sapiens, UniProt P46663); assay: Calcium flux assay (FLIPR) with IMR-90 human foetal lung fibroblasts after IL-1 induction; assay type: cell-based; conditions: IMR-90 fibroblasts induced with human IL-1; 0.1% BSA in assay buffer; agonist Lys-(Des-Arg)-Bradykinin at EC90; read-out: hB1 IC50 IMR90
T2 construct: which express native human B1 receptors after induction with human IL-1; Coriell Institute; host or cells: IMR-90 human foetal lung fibroblasts, induced with human IL-1
T2 sequence (P46663 1-353): T1 sequence (P46663 1-353)
Experimental: Calcium Flux Assay (FLIPR) with Human Fibroblasts for Bradykinin B1 Receptor Antagonist (hB1 IMR-90 IC50)
The Calcium flux Assay was carried out utilising IMR-90 human foetal lung fibroblasts (American Type Culture Collection, Rockville, Md.; and Coriell Institute, Camden, N.J.), which express native human B1 receptors after induction with human IL-1[…].
The fibroblasts were cultured in complete growth media comprised of Dulbecco's modified Eagle's medium (DMEM; Sigma) containing 10% foetal bovine serum, 4 mM L-glutamine, and 1% nonessential amino acids. The cells were maintained in a humidified atmosphere with 5% CO2 at 37° C. and were sub-cultured at a ratio of 1:3, every other day.
For the assay, IMR-90 fibroblasts were harvested using TrypLE Express (GIBCO/Invitrogen) and seeded into 384-well plates (Corning Cellbinding Surface, Cat. 3683) at a density of 15000 cells/well. The following day, cells were treated with 0.35 ng/mL human IL-1[…] in 10% FBS/MEM for 3 h to up-regulate B1 receptors. Induced cells were loaded with fluorescent calcium indicator by incubation with 2.5 μM Fluo-4/AM (Invitrogen) at 37° C., 5% CO2 for 2 h in the presence of 2.5 mM probenecid in 1% FBS/MEM. Extracellular dye was removed by washing with assay buffer (2.5 mM probenecid and 0.1% BSA in 20 mM HEPES/HBSS without bicarbonate or phenol red, pH 7.5). Example compounds were assayed at 8 concentrations in triplicate. After addition of example compounds to the cell plate and incubation for 30 min at 28° C., the addition of B1 agonist Lys-(Des-Arg)-Bradykinin (Bachem, Brackley) at a final concentration of EC90 was carried out on the FLIPR instrument while continuously monitoring Ca^2+-dependent fluorescence at 538 nm. A peptide antagonist Lys-(Des-Arg-Leu)-Bradykinin (Bachem, Brackley) at 20 μM was used to determine the full inhibition as control. IC50 values were determined by the same way described for the FLIPR assay with recombinant cells.

| Molecule | IC50 [1] [nM] | IC50 [2] [nM] |
| --- | --- | --- |
| CC(F)(F)c1ccc(-c2ccc(NC(=O)C3CC3c3cccc(C(F)(F)F)c3)cc2C(=O)O)cn1 (racemic) [Example 18, 2-[6-(1,1-difluoroethyl)pyridin-3-yl]-5-[({2-[3-(trifluoromethyl)phenyl]cyclopropyl}carbonyl)amino]bentoic acid] | 2510 | – |
| CCC(F)(F)c1ccc(-c2ccc(NC(=O)C3CC3c3ccccc3OC(F)(F)F)cc2C(=O)O)cn1 (racemic) [Example 20, 2-[6-(1,1-difluoropropyl)pyridin-3-yl]-5-[({2-[2-(trifluoromethoxy)phenyl]cyclopropyl}carbonyl)amino]benzoic acid] | 1520 | – |
| CC(F)(F)c1ccc(-c2ccc(NC(=O)C3CC3c3cccc(Cl)c3)cc2C(=O)O)cn1 (racemic) [Example 17] | 2470 | – |
| CCC(F)(F)c1ccc(-c2ccc(NC(=O)C3CC3c3ccc(Cl)cc3)cc2C(=O)O)cn1 (racemic) [Example 23, 5-({[2-(4-Chlorophenyl)cyclopropyl]carbonyl}amino)-2-[6-(1,1-difluoropropyl)pyridin-3-yl]benzoic acid] | 309 | 529 |
| O=C(O)c1cc(NC(=O)C2CC2c2ccccc2OC(F)(F)F)ccc1-c1cnn(C2CCC2)c1 (racemic) [Example 10, 2-(1-cyclobutyl-1H-pyrazol-4-yl)-5-[({2-[2-(trifluoromethoxy)phenyl]cyclopropyl}carbonyl)amino]benzoic acid] | 353 | – |
| O=C(O)c1cc(NC(=O)C2CC2c2cccc(Cl)c2)ccc1-c1cnn(C2CCC2)c1 (single isomer, unassigned) [Example 11, 5-({[2-(3-chlorophenyl)cyclopropyl]carbonyl}amino)-2-(1-cyclobutyl-1H-pyrazol-4-yl)benzoic acid] | 32 | – |
| O=C(O)c1cc(NC(=O)C2CC2c2ccc(Cl)cc2)c(F)cc1-c1ccc(C(F)(F)F)nc1 (racemic) [Example 25, 5-({[2-(4-chlorophenyl)cyclopropyl]carbonyl}amino)-4-fluoro-2-[6-(trifluoromethyl)pyridin-3-yl]benzoic acid] | 1260 | 4730 |
| O=C(O)c1cc(NC(=O)C2CC2c2cccc(Cl)c2)cc(F)c1-c1cnn(C2CCC2)c1 (single isomer, unassigned; (-)) [Example 9, (−)-5-({[2-(3-chlorophenyl)cyclopropyl]carbonyl}amino)-2-(1-cyclobutyl-1H-pyrazol-4-yl)-3-fluorobenzoic acid] | 17 | – |
| CC(F)(F)c1ccc(-c2ccc(NC(=O)C3CC3c3ccc(Cl)cc3)cc2C(=O)O)cn1 (racemic) [Example 19, 5-({[2-(4-chlorophenyl)cyclopropyl]carbonyl}amino)-2-[6-(1,1-difluoroethyl)pyridin-3-yl]benzoic acid] | 2490 | – |
| O=C(O)c1cc(NC(=O)C2CC2c2cccc(C(F)(F)F)c2)ccc1-c1cnn(C2CCC2)c1 (racemic) [Example 12, 2-(1-cyclobutyl-1H-pyrazol-4-yl)-5-[({2-[3-(trifluoromethyl)phenyl]cyclopropyl}carbonyl)amino]benzoic acid] | 126 | – |
| (−)-5-({[trans-2-(4-chlorophenyl)cyclopropyl]carbonyl}amino)-2-(1-cyclobutyl-1H-pyrazol-4-yl)-3-fluorobenzoic acid [Example 4] | 1180 | – |
| CC(F)(F)c1ccc(-c2ccc(NC(=O)C3CC3c3ccccc3OC(F)(F)F)cc2C(=O)O)cn1 (racemic) [Example 16, 2-[6-(1,1-difluoroethyl)pyridin-3-yl]-5-[({2-[2-(trifluoromethoxy)phenyl]cyclopropyl}carbonyl)amino]benzoic acid] | 2570 | – |
| Cc1cccc(C2CC2C(=O)Nc2ccc(-c3cnn(C4CCC4)c3)c(C(=O)O)c2)c1 (racemic) [Example 5, 2-(1-cyclobutyl-1H-pyrazol-4-yl)-5-({[2-(3-methylphenyl)cyclopropyl]carbonyl}amino) benzoic acid] | 110 | – |
| O=C(O)c1cc(NC(=O)C2CC2c2ccc(Cl)cc2)ccc1-c1cnn(C2CCC2)c1 (single isomer, unassigned) [Example 7, 5-({[2-(4-chlorophenyl)cyclopropyl]carbonyl}amino)-2-(1-cyclobutyl-1H-pyrazol-4-yl)benzoic acid] | 117 | – |
| O=C(O)c1cc(NC(=O)C2CC2c2ccc(Cl)cc2)ccc1-c1cnn(C2CCC2)c1 (racemic) [Example 6, 5-({[2-(4-chlorophenyl)cyclopropyl]carbonyl}amino)-2-(1-cyclobutyl-1H-pyrazol-4-yl)benzoic acid] | 272 | – |
| O=C(O)c1cc(NC(=O)C2CC2c2cccc(Cl)c2)cc(F)c1-c1cnn(C2CCC2)c1 (single isomer, unassigned; (+)) [Example 8, (+)-5-({[2-(3-chlorophenyl)cyclopropyl]carbonyl}amino)-2-(1-cyclobutyl-1H-pyrazol-4-yl)-3-fluorobenzoic acid] | 1130 | – |
| CCC(F)(F)c1ccc(-c2ccc(NC(=O)C3CC3c3cccc(C(F)(F)F)c3)cc2C(=O)O)cn1 (racemic) [Example 21, 2-[6-(1,1-difluoropropyl)pyridin-3-yl]-5-[({2-[3-(trifluoromethyl)phenyl]cyclopropyl}carbonyl)amino]benzoic acid] | 403 | – |
| CC(C)(C)c1ccn(-c2ccc(NC(=O)C3CC3c3ccc(Cl)cc3)cc2C(=O)O)n1 (racemic) [Example 14, 2-(3-tert-Butyl-1H-pyrazol-1-yl)-5-({[2-(4-chlorophenyl)cyclopropyl]carbonyl}amino)benzoic acid] | 2220 | – |
| CCC(F)(F)c1ccc(-c2ccc(NC(=O)C3CC3c3cccc(Cl)c3)cc2C(=O)O)cn1 (racemic) [Example 22, 5-({[2-(3-chlorophenyl)cyclopropyl]carbonyl}amino)-2-[6-(1,1-difluoropropyl)pyridin-3-yl]benzoic acid] | 1190 | – |
